Patent US20190127366A1 (LifeSci Pharmaceuticals, Inc., priority 2015, published 2019)

Biological target: T1, human complement factor D (Homo sapiens, UniProt P00746)
T1 construct: purchased R&D Systems 1824-SE
Test: In vitro enzyme inhibition (Z-Lys-SBzl/DTNB absorbance assay)
Format: biochemical
Conditions: Complement Factor D (R&D Systems), substrate Z-Lys-SBzl, A405 nm; read-out: CFD IC50
How it was run: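 Factor D (6.25 ng/μL before addition) preincubated 5 min RT with compound (8 points from 50 μM, 6-fold, 0.5% DMSO final) in 50 mM Tris/HCl pH 7.5, 1 M NaCl, then Z-Lys-SBzl/DTNB added (200 μM each before addition). A405 read kinetically every 30 s for 60 min; IC50 from variable-slope fit, controls with and without enzyme.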

T1 sequence (P00746 26-253): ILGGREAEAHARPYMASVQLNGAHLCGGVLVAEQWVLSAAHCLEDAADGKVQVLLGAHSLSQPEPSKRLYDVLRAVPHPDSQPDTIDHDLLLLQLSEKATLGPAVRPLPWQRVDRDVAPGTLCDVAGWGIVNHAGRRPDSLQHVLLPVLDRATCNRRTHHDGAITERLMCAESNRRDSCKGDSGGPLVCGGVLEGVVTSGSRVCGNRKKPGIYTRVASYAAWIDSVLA

First: NC(=O)c1nn(CC(=O)N2[C@H](C(=O)Nc3ccnc(Cl)c3)C[C@@H]3CCC[C@@H]32)c2ccccc12 [Example 163, 1-(2-((2S,3aS,6aS)-2-((2-chloropyridin-4-yl)carbamoyl)hexahydrocyclopenta[b]pyrrol-1(2H)-yl)-2-oxoethyl)-1H-indazole-3-carboxamide]
Second: NC(=O)c1nn(CC(=O)N2[C@H](C(=O)Nc3cncc(Cl)c3)C[C@@H]3CCC[C@@H]32)c2ccccc12 [Example 161, 1-(2-((2S,3aS,6aS)-2-((5-chloropyridin-3-yl)carbamoyl)hexahydrocyclopenta[b]pyrrol-1(2H)-yl)-2-oxoethyl)-1H-indazole-3-carboxamide]
The IC50 of the first is higher: > 10000 nM for the first, 1000 to 10000 nM for the second. The second is the more potent here.

NC(=O)c1nn(CC(=O)N2[C@H](C(=O)Nc3cccc(Cl)n3)C[C@@H]3CCC[C@@H]32)c2cc(F)ccc12 [Example 172, 1-(2-((2S,3aS,6aS)-2-((6-chloropyridin-2-yl)carbamoyl)hexahydrocyclopenta[b]pyrrol-1(2H)-yl)-2-oxoethyl)-6-fluoro-1H-indazole-3-carboxamide 2,2,2-trifluoroacetate] and N#Cc1ccc2c(c1)c(C(N)=O)nn2CC(=O)N1[C@H](C(=O)Nc2cccc(Cl)n2)C[C@@H]2CCC[C@@H]21 [Example 174, 1-(2-((2S,3aS,6aS)-2-((6-chloropyridin-2-yl)carbamoyl)hexahydrocyclopenta[b]pyrrol-1(2H)-yl)-2-oxoethyl)-5-cyano-1H-indazole-3-carboxamide] fall in the same range of IC50: 100 to 1000 nM for the first, 100 to 1000 nM for the second.

First: COc1ccc2c(c1)c(C(N)=O)nn2CC(=O)N1[C@@H]2CC[C@@H](C2)[C@H]1C(=O)Nc1cccc(Cl)n1 [Example 74, 1-(2-((1R,3S,4S)-3-((6-chloropyridin-2-yl)carbamoyl)-2-azabicyclo[2.2.1]heptan-2-yl)-2-oxoethyl)-5-methoxy-1H-indazole-3-carboxamide]
Second: NC(=O)c1nn(CC(=O)N2[C@@H]3CC[C@@H](C3)[C@H]2C(=O)Nc2cccc(Cl)n2)c2ccc(N)cc12 [Example 75, 5-amino-1-(2-((1R,3S,4S)-3-((6-chloropyridin-2-yl)carbamoyl)-2-azabicyclo[2.2.1]heptan-2-yl)-2-oxoethyl)-1H-indazole-3-carboxamide]
The IC50 of the first is higher: 1000 to 10000 nM for the first, 100 to 1000 nM for the second.

Compared with NC(=O)c1nn(CC(=O)N2[C@H]3CC[C@H](C3)[C@@H]2C(=O)Nc2cccc(Cl)n2)c2ccccc12 [Example 19, 1-(2-((1S,3R,4R)-3-((6-chloropyridin-2-yl)carbamoyl)-2-azabicyclo[2.2.1]heptan-2-yl)-2-oxoethyl)-1H-indazole-3-carboxamide], NC(=O)c1nn(CC(=O)N2[C@@H]3CC[C@@H](C3)[C@H]2C(=O)Nc2cccc(C(F)(F)F)n2)c2ccccc12 [Example 8, 1-(2-oxo-2-((1R,3S,4S)-3-((6-(trifluoromethyl)pyridin-2-yl)carbamoyl)-2-azabicyclo[2.2.1]heptan-2-yl)ethyl)-1H-indazole-3-carboxamide] is higher in IC50: 100 to 1000 nM for the first, 1000 to 10000 nM for the second. The first is the more potent here.

First: NC(=O)c1nn(CC(=O)N2[C@@H]3CC[C@@H](C3)[C@H]2C(=O)Nc2cccc(OC(F)(F)F)c2F)c2cnccc12 [Example 42, 1-(2-((1R,3S,4S)-3-((2-fluoro-3-(trifluoromethoxy)phenyl)carbamoyl)-2-azabicyclo[2.2.1]heptan-2-yl)-2-oxoethyl)-1H-pyrazolo[3,4-c]pyridine-3-carboxamide]
Second: NC(=O)c1nn(CC(=O)N2[C@@H]3CC[C@@H](C3)[C@H]2C(=O)Nc2ncccc2Cl)c2ccccc12 [Example 54, 1-(2-((1R,3S,4S)-3-((3-chloropyridin-2-yl)carbamoyl)-2-azabicyclo[2.2.1]heptan-2-yl)-2-oxoethyl)-1H-indazole-3-carboxamide]
The IC50 of the first is lower: 1000 to 10000 nM for the first, > 10000 nM for the second.

First: NC(=O)c1nn(CC(=O)N2C(C(=O)NCc3cccc(Cl)n3)[C@@H]3C[C@@H](O)[C@H]2[C@H]3O)c2ccccc12 (stereo partly drawn) [Example 154, 1-(2-((1S,4S,6R,7S)-3-(((6-chloropyridin-2-yl)methyl)carbamoyl)-6,7-dihydroxy-2-azabicyclo[2.2.1]heptan-2-yl)-2-oxoethyl)-1H-indazole-3-carboxamide]
Second: CCOC(=O)[C@@H]1C[C@@H](C(=O)NCc2cccc(Cl)c2F)N1C(=O)Cn1nc(C(N)=O)c2ccccc21 (relative stereo) [Example 194, trans-ethyl 1-(2-(3-carbamoyl-1H-indazol-1-yl)acetyl)-4-((3-chloro-2-fluorobenzyl)carbamoyl)azetidine-2-carboxylate]
The IC50 of the first is higher: 1000 to 10000 nM for the first, 100 to 1000 nM for the second. The second is the more potent here.

NC(=O)n1cc(CC(=O)N2[C@@H]3CC[C@@H](C3)[C@H]2C(=O)NCc2cccc(Cl)c2F)c2ccccc21 [Example 99, 3-(2-((1R,3S,4S)-3-((3-chloro-2-fluorobenzyl)carbamoyl)-2-azabicyclo[2.2.1]heptan-2-yl)-2-oxoethyl)-1H-indole-1-carboxamide] and Cc1ccc2c(c1)c(C(N)=O)nn2CC(=O)N1[C@@H]2CC[C@@H](C2)[C@H]1C(=O)NCc1cccc(Cl)c1F [Example 60, 1-(2-((1R,3S,4S)-3-((3-chloro-2-fluorobenzyl)carbamoyl)-2-azabicyclo[2.2.1]heptan-2-yl)-2-oxoethyl)-5-methyl-1H-indazole-3-carboxamide] fall in the same range of IC50: 100 to 1000 nM for the first, 100 to 1000 nM for the second.

CC(C)(C)OC(=O)N1CCN(C(=O)Cn2nc(C(N)=O)c3ccccc32)[C@H](C(=O)Nc2cccc(Cl)n2)C1 [Example 25, (S)-tert-butyl 4-(2-(3-carbamoyl-1H-indazol-1-yl)acetyl)-3-((6-chloropyridin-2-yl)carbamoyl)piperazine-1-carboxylate] and NC(=O)c1nn(CC(=O)N2CCOC[C@H]2C(=O)Nc2cccc(C(F)(F)F)n2)c2ccccc12 [Example 23, (S)-4-(2-(3-carbamoyl-1H-indazol-1-yl)acetyl)-N-(6-(trifluoromethyl)pyridin-2-yl)morpholine-3-carboxamide] fall in the same range of IC50: 1000 to 10000 nM for the first, 1000 to 10000 nM for the second.

Compared with NC(=O)c1nn(CC(=O)N2[C@@H]3CC[C@@H](C3)[C@H]2C(=O)Nc2cccc(Cl)n2)c2ccc([N+](=O)[O-])cc12 [Example 73, 1-(2-((1R,3S,4S)-3-((6-chloropyridin-2-yl)carbamoyl)-2-azabicyclo[2.2.1]heptan-2-yl)-2-oxoethyl)-5-nitro-1H-indazole-3-carboxamide], CC(=O)c1nn(CC(=O)N2[C@@H]3CC[C@@H](C3)[C@H]2C(=O)Nc2cccc(Cl)n2)c2ccc(Br)cc12 [Example 90, (1R,3S,4S)-2-(2-(3-acetyl-5-bromo-1H-indazol-1-yl)acetyl)-N-(6-chloropyridin-2-yl)-2-azabicyclo[2.2.1]heptane-3-carboxamide] is lower in IC50: 1000 to 10000 nM for the first, 100 to 1000 nM for the second. The second is the more potent here.

Compared with CC(=O)c1nc(CC(=O)N2CC[C@H]2C(=O)NCc2cccc(Cl)c2F)n2ccccc12 [Example 192, (S)-1-(2-(1-acetylimidazo[1,5-a]pyridin-3-yl)acetyl)-N-(3-chloro-2-fluorobenzyl)azetidine-2-carboxamide], NC(=O)c1nn(CC(=O)N2CCC3CC32C(=O)NCc2cccc(Cl)c2F)c2ccccc12 (stereo not drawn) [Example 147, 1-(2-(1-((3-chloro-2-fluorobenzyl)carbamoyl)-2-azabicyclo[3.1.0]hexan-2-yl)-2-oxoethyl)-1H-indazole-3-carboxamide] is higher in IC50: 1000 to 10000 nM for the first, > 10000 nM for the second. The first is the more potent here.

First: NC(=O)c1nn(CC(=O)N2[C@H](C(=O)NCc3cccc(Cl)c3F)C[C@@H]3CCC[C@@H]32)c2ccc(F)cc12 [Example 166, 1-(2-((2S,3aS,6aS)-2-((3-chloro-2-fluorobenzyl)carbamoyl)hexahydrocyclopenta[b]pyrrol-1(2H)-yl)-2-oxoethyl)-5-fluoro-1H-indazole-3-carboxamide]
Second: NC(=O)c1nn(CC(=O)N2[C@@H]3CC[C@@H](C3)[C@H]2C(=O)NCc2cccc(Cl)c2F)c2ccc(CC(=O)O)cc12 [Example 131]
The IC50 of the first is lower: 100 to 1000 nM for the first, 1000 to 10000 nM for the second. The first is the more potent here.

First: Cc1cc(C)nc(NC(=O)[C@@H]2[C@H]3CC[C@H](C3)N2C(=O)Cn2nc(C(N)=O)c3ccccc32)c1 [Example 67, 1-(2-((1R,3S,4S)-3-((4,6-dimethylpyridin-2-yl)carbamoyl)-2-azabicyclo[2.2.1]heptan-2-yl)-2-oxoethyl)-1H-indazole-3-carboxamide 2,2,2-trifluoroacetate]
Second: NC(=O)c1cc(Cl)nc(NC(=O)[C@@H]2[C@H]3CC[C@H](C3)N2C(=O)Cn2nc(C(N)=O)c3ccccc32)c1 [Example 106, 1-(2-((1R,3S,4S)-3-((4-carbamoyl-6-chloropyridin-2-yl)carbamoyl)-2-azabicyclo[2.2.1]heptan-2-yl)-2-oxoethyl)-1H-indazole-3-carboxamide]
The IC50 of the first is higher: > 10000 nM for the first, 100 to 1000 nM for the second.

NC(=O)c1nn(CC(=O)N2[C@@H]3CC[C@@H](C3)[C@H]2C(=O)NCc2cc(C(=O)O)cc(Cl)c2F)c2ccccc12 [Example 111, 3-(((1R,3S,4S)-2-(2-(3-carbamoyl-1H-indazol-1-yl)acetyl)-2-azabicyclo[2.2.1]heptane-3-carboxamido)methyl)-5-chloro-4-fluorobenzoic acid] and NC(=O)c1nn(CC(=O)N2[C@@H]3CC[C@@H](C3)[C@H]2C(=O)NCc2cc(F)cc(Cl)c2)c2ccccc12 [Example 64, 1-(2-((1R,3S,4S)-3-((3-chloro-5-fluorobenzyl)carbamoyl)-2-azabicyclo[2.2.1]heptan-2-yl)-2-oxoethyl)-1H-indazole-3-carboxamide 2,2,2-trifluoroacetate] fall in the same range of IC50: 100 to 1000 nM for the first, 100 to 1000 nM for the second.

NC(=O)c1nn(CC(=O)N2[C@@H]3CC[C@@H](C3)[C@H]2C(=O)NC(CC(=O)O)c2cccc(Cl)c2F)c2ccccc12 (stereo partly drawn) [Example 143, 3-((1R,3S,4S)-2-(2-(3-carbamoyl-1H-indazol-1-yl)acetyl)-2-azabicyclo[2.2.1]heptane-3-carboxamido)-3-(3-chloro-2-fluorophenyl)propanoic acid] was tested, and the IC50 was 1000 to 10000 nM.
